{"source": "paper PMC10511417", "about": "“Salmonid polysialyltransferases to generate a variety of sialic acid polymers” (Scientific Reports, 2023)", "system": "T1, CmaST8Sia IV (CmaΔ28ST8Sia IV; fish ST8Sia IV)", "T1 construct": "gene st8sia4; soluble Δ28 form lacking the first 28 residues (cytoplasmic tail and transmembrane domain), N-terminal 3xFLAG (p3×FLAG-CMV9), secreted by HEK293 cells; crude culture medium; ~52 kDa N-glycosylated; cDNA cloned from C. maraena with 1074 bp amplicon; printed XM_041897387 is Coregonus clupeaformis homologue", "test": "MicroPlate Sialyltransferase Assay (click biotinylation, anti-biotin-HRP), Michaelis-Menten fit", "format": "biochemical, Coregonus maraena", "settings": "acceptor CD166/ALCAM 400 ng; cacodylate buffer pH 6.4, 27 °C, 4 h; 0-100 µM donor; crude culture medium as enzyme; read-out: apparent Km", "data": [{"smiles": "C#CCCC(=O)N[C@H]1[C@H]([C@H](O)[C@H](O)CO)OC(OP(=O)(O)OC[C@H]2O[C@@H](n3ccc(N)nc3=O)[C@H](O)[C@@H]2O)(C(=O)O)C[C@@H]1O", "note": "(stereo partly shown) [CMP-SiaNAl]", "values": [{"measurement": "Km", "value": "17.6 ± 2.52", "unit": "µM"}]}]}
